# In US20090226500A1, “SUTURES AND ANTI-SCARRING AGENTS” (Angiotech Pharmaceuticals, Inc, priority 2006, published 2009):
# Where a name gives a salt, the structure may show the parent alone. Numbered stars: 1 amine (or outer) side, 2 acyl side, 3 side chain; on linkers, the order of the positions; unused ones are H or OH. Bridge positions count the residues as written; N and C are the ends. Square brackets hold non-standard residues; d marks the D form. Peptide text beside a SMILES is read from it. I, II: the chains in the order shown. Actinocin(9to1) = Cc1c2oc3c(C)ccc(C(=O)[*:1])c3nc-2c(C(=O)[*:2])c(N)c1=O; NMeV = CN[C@H](C(=O)O)C(C)C; Sar = CNCC(=O)O
# System: Smooth muscle cells
# Experiment: Proliferation of smooth muscle cells
# Format: cell-based
# Details: 72 h, read-out: IC50 proliferation of smooth muscle cells
# Method: Smooth muscle cells at 70-90% confluency were trypsinized, replated at 600 cells/well in media in 96-well plates and allowed to attachment overnight. Paclitaxel was prepared in DMSO at a concentration of 10^−2 M and diluted 10-fold to give a range of stock concentrations (10^−8 M to 10^−2 M). […] Each drug concentration was tested in triplicate wells. Plates containing cells and paclitaxel were incubated at 37° C. for 72 hours.
# (§1) To terminate the assay, the media was removed by gentle aspiration A 1/400 dilution of CYQUANT 400×GR dye indicator (Molecular Probes; Eugene, Oreg.) was added to 1× Cell Lysis buffer, and 200 μL of the mixture was added to the wells of the plate. Plates were incubated at room temperature, protected from light for 3-5 minutes.
row,SMILES,IC50 [nM]
1,C/C1=C/C[C@@H](/C(C)=C/c2csc(C)n2)OC(=O)C[C@H](O)C(C)(C)C(=O)[C@H](C)[C@@H](O)[C@@H](C)CCC1 [epothilone D],5

# Same assay, conditions: 72 hours, CYQUANT; read-out: IC50 proliferation of smooth muscle cells
row,SMILES,IC50 [nM]
1,COC(=O)[C@@H]1c2cc3c(c(O)c2[C@@H](O[C@@H]2O[C@@H](C)[C@H](OC)[C@@](C)(OC)[C@H]2OC)C[C@]1(C)O)C(=O)c1c(O)cc2c(c1C3=O)O[C@@H]1O[C@@]2(C)[C@H](O)[C@@H](N(C)C)[C@@H]1O [nogalamycin],49
2,CCC(C)n1ncn(-c2ccc(N3CCN(c4ccc(OCC5COC(Cn6cncn6)(c6ccc(Cl)cc6Cl)O5)cc4)CC3)cc2)c1=O (stereo not drawn) [itraconazole],795
3,Nc1ccn([C@@H]2O[C@H](CO)[C@@H](O)C2(F)F)c(=O)n1 [gemcitabine],9
4,C=C1[C@@H](C)[C@H]2[C@H](Cc3ccccc3)NC(=O)[C@]23OC(=O)/C=C/C(=O)CCC[C@@H](C)C/C=C/[C@H]3[C@@H]1O [cytochalasin A],221
5,CC[C@H](C)C(=O)O[C@H]1C[C@@H](C)C=C2C=C[C@H](C)[C@H](CC[C@@H]3C[C@@H](O)CC(=O)O3)[C@H]21 [lovastatin],978
6,CC(=O)[C@]1(O)Cc2c(O)c3c(c(O)c2[C@@H](O[C@H]2C[C@H](N)[C@H](O)[C@H](C)O2)C1)C(=O)c1ccccc1C3=O [idarubicin],38
7,"CO[C@H]1/C=C\C=C(/C)C(=O)NC2=CC(=O)C(NCCN(C)C)=C(C[C@@H](C)C[C@H](OC)[C@H](O)[C@@H](C)/C=C(\C)[C@@H]1OC(N)=O)C2=O [17-DMAG, 17-dimethylaminoethylamino-17-demethoxy-geldanamycin]",17
8,CO[C@@]12[C@H](COC(N)=O)C3=C(C(=O)C(C)=C(N)C3=O)N1C[C@@H]1N[C@@H]12 [mitomycin C],53
9,COc1ccc(C[C@H](N)C(=O)N[C@H]2[C@@H](O)[C@H](n3cnc4c(N(C)C)ncnc43)O[C@@H]2CO)cc1 [puromycin],384
10,CC[C@]1(O)C[C@H]2CN(CCc3c([nH]c4ccccc34)[C@@](C(=O)OC)(c3cc4c(cc3OC)N(C=O)[C@H]3[C@@](O)(C(=O)OC)[C@H](OC(C)=O)[C@]5(CC)C=CCN6CC[C@]43[C@@H]65)C2)C1 [vincristine],9
11,"Nc1nc(Cl)nc2c1ncn2[C@H]1C[C@H](O)[C@@H](CO)O1 [cladribine, 2-Chloro-2-deoxyadenosine]",137

# System: MCP-1 production by THP-1 cells
# Experiment: MCP-1 production by macrophages
# Format: cell-based, human
# Details: THP-1 cells stimulated with opsonized zymosan, 24 hours; read-out: IC50 MCP-1 production
# Method: The human macrophage cell line, THP-1 was plated in a 12 well plate such that each well contains 1×10^6 cells in 2 ml of media containing 10% FCS. Opsonized zymosan was prepared by resuspending 20 mg of zymosan A in 2 ml of ddH2O and homogenizing until a uniform suspension was obtained. Homogenized zymosan was pelleted at 250 g and resuspended in 4 ml of human serum for a final concentration of 5 mg/ml and incubated in a 37° C. water bath for 20 minutes to enable opsonization. Geldanamycin was prepared in DMSO at a concentration of 10^−2 M and serially diluted 10-fold to give a range of stock concentrations (10^−8 M to 10^−2 M).
# THP-1 cells were stimulated to produce MCP-1 by the addition of 1 mg/ml opsonized zymosan. […] was added to THP-1 cells by directly adding DMSO stock solutions, prepared earlier, at a 1/1000 dilution, to each well. Each drug concentration was tested in triplicate wells. Plates were incubated at 37° C. for 24 hours.
# After a 24-hour stimulation, supernatants were collected to quantify MCP-1 production. MCP-1 concentrations in the supernatants were determined by ELISA using recombinant human MCP-1 to obtain a standard curve. A 96-well MaxiSorb plate was coated with 100 μL of anti-human MCP-1 Capture Antibody diluted in Coating Buffer (0.1M sodium carbonate pH 9.5) overnight at 4° C. The dilution of Capture Antibody used was lot-specific and was determined empirically. Capture antibody was then aspirated and the plate washed 3 times with Wash Buffer (PBS, 0.05% TWEEN-20). Plates were blocked for 1 hour at room temperature with 200 μL/well of Assay Diluent (PBS, 10% FCS pH 7.0). After blocking, plates were washed 3 times with Wash Buffer. […] Sample supernatants and standards were assayed in triplicate and were incubated at room temperature for 2 hours after addition to the plate coated with Capture Antibody. The plates were washed 5 times and incubated with 100 μL of Working Detector (biotinylated anti-human MCP-1 detection antibody+avidin-HRP) for 1 hour at room temperature. Following this incubation, the plates were washed 7 times and 100 μL of Substrate Solution (tetramethylbenzidine, H2O2) was added to plates and incubated for 30 minutes at room temperature. […] Mean absorbance was determined from triplicate data readings and the mean background was subtracted. MCP-1 concentration values were obtained from the standard curve.
row,SMILES,IC50 [nM]
1,Nc1ccn([C@@H]2O[C@H](CO)[C@@H](O)C2(F)F)c(=O)n1 [gemcitabine],50
2,C=C1/C(=C\C=C2/CCC[C@]3(C)[C@@H]([C@H](C)CCCC(C)(C)O)CC[C@@H]23)C[C@@H](O)C[C@@H]1O [1-α-25 dihydroxy vitamin D3],1
3,CC1(C)CN[Se]c2ccccc21 [BXT-51072],683
4,O=C(O)CCCCN(CCc1ccccc1OCc1ccc(CCc2ccccc2)cc1)Cc1ccc(C(=O)O)cc1 [Bay 58-2667],216
5,COc1ccc(C[C@H](N)C(=O)N[C@H]2[C@@H](O)[C@H](n3cnc4c(N(C)C)ncnc43)O[C@@H]2CO)cc1 [puromycin],161
6,CC[C@]1(O)C[C@H]2CN(CCc3c([nH]c4ccccc34)[C@@](C(=O)OC)(c3cc4c(cc3OC)N(C=O)[C@H]3[C@@](O)(C(=O)OC)[C@H](OC(C)=O)[C@]5(CC)C=CCN6CC[C@]43[C@@H]65)C2)C1 [vincristine],16

# System: human fibroblasts
# Experiment: Cell proliferation of fibroblasts
# Format: cell-based
# Details: Fibroblast, 72 hours, CYQUANT, read-out: IC50 cell proliferation of fibroblasts
# Method: Fibroblasts at 70-90% confluency are trypsinized, replated at 600 cells/well in media in 96-well plates and allowed to attachment overnight. […] Each drug concentration is tested in triplicate wells. Plates containing fibroblasts and drug substance are incubated at 37° C. for 72 hours.
# as §1, with “is” for “was”, “aspiration.” for “aspiration”, “400×GR™” for “400×GR”, “are” for “were”
row,SMILES,IC50 [nM]
1,C/C1=C/C[C@@H](/C(C)=C/c2csc(C)n2)OC(=O)C[C@H](O)C(C)(C)C(=O)[C@H](C)[C@@H](O)[C@@H](C)CCC1 [epothilone D],10 to 100
2,"CO[C@H]1/C=C\C=C(/C)C(=O)NC2=CC(=O)C(NCCN(C)C)=C(C[C@@H](C)C[C@H](OC)[C@H](O)[C@@H](C)/C=C(\C)[C@@H]1OC(N)=O)C2=O [17-DMAG, 17-dimethylaminoethylamino-17-demethoxy-geldanamycin]",0.1 to 10
3,C/C=C(/C)C(=O)O[C@H]1C(C)=C2[C@H]([C@@H]1OC(=O)CCCCCCC)[C@@](C)(OC(C)=O)C[C@H](OC(=O)CCC)[C@@]1(O)[C@H]2OC(=O)[C@@]1(C)O [Thapsigargin],0.1 to 10
4,"C#C[C@]1(O)CC[C@H]2[C@@H]3CCc4cc(OC5CCCC5)ccc4[C@H]3CC[C@@]21C [Quinestrol, 17a-Ethynylestradiot 3-cyclopentyl ether]",1200 to 10000
5,O=c1[nH]cnc2c1ncn2[C@@H]1O[C@H](CO)[C@@H](O)[C@H]1O [INO-1001],1200 to 10000
6,"Cc1c2oc3c(C)ccc(C(=O)N[C@@H]4C(=O)N[C@H](C(C)C)C(=O)N5CCC[C@H]5C(=O)N(C)CC(=O)N(C)[C@@H](C(C)C)C(=O)O[C@@H]4C)c3nc-2c(C(=O)N[C@@H]2C(=O)N[C@H](C(C)C)C(=O)N3CCC[C@H]3C(=O)N(C)CC(=O)N(C)[C@@H](C(C)C)C(=O)O[C@@H]2C)c(N)c1=O [Actinomycin D] (I: T[dV]P[Sar][NMeV] / II: T[dV]P[Sar][NMeV]; ester I:1-I:C, II:1-II:C; linker I:N-II:N via Actinocin(9to1))",0.1 to 10
7,CCCCCCC(C)(C)c1cc(O)c2c(c1)OC(C)(C)[C@@H]1CC=C(CO)C[C@@H]21 [HU-210],1200 to 10000
8,Cn1c(=O)c2[nH]cnc2n(C)c1=O [Theophylline],0.1 to 10
9,CC(=O)OCC(=O)[C@@]1(OC(C)=O)[C@@H](C)C[C@H]2[C@@H]3C[C@H](F)C4=CC(=O)C=C[C@]4(C)[C@@]3(F)[C@@H](O)C[C@@]21C [Diflorasone diacetate],1200 to 10000
10,CC(=O)OCC(=O)NCCCOc1cccc(CN2CCCCC2)c1 [Roxatidine acetate],600 to 1200
11,"Cc1cc(O)c2c(c1)C(=O)c1cc(O)cc(O)c1C2=O [Emodin, 6-Methyl-1,3,8-trihydroxyanthraquinone]",1200 to 10000
12,Cc1cccc(Nc2ccncc2S(=O)(=O)NC(=O)NC(C)C)c1 [Torasemide],10 to 100
13,c1c[nH]cn1 [Imidazole],1200 to 10000
14,O=C(OOC(=O)c1ccccc1)c1ccccc1 [Benzoyl peroxide],1200 to 10000
15,CNCCC=C1c2ccccc2CCc2ccccc21 [Nortriptyline Hydrochloride],0.1 to 10
16,"O=c1oc2ccccc2c(O)c1Cc1c(O)c2ccccc2oc1=O [Dicumarol, 3,3-Methylenebis(4-hydroxycoumarin)]",1200 to 10000
17,NC(Cc1ccc(N(CCCl)CCCl)cc1)C(=O)O (stereo not drawn) [Melphalan],1200 to 10000
18,O=c1c(O)c(-c2cc(O)c(O)c(O)c2)oc2cc(O)cc(O)c12 [Myricetin],600 to 1200
19,"COc1ccc(-c2coc3cc(O)ccc3c2=O)cc1 [Formononetin, 7-Hydroxy-4-methoxyisoflavone]",100 to 600
20,"CCCCCCCCCCCCCCC[C@H](O)[C@@H](N)CO [Safingol, L-threo-Dihydrosphingosine]",600 to 1200
21,Cc1nc2ccc(CN(C)c3ccc(C(=O)N[C@@H](CCC(=O)O)C(=O)O)s3)cc2c(=O)[nH]1 [Raltitrexed],10 to 100
22,CN(C)[C@@H]1C(O)=C(C(N)=O)C(=O)[C@@]2(O)C(O)=C3C(=O)c4c(O)cccc4[C@@](C)(O)[C@H]3[C@H](O)[C@@H]12 [Oxytetracycline hydrochloride],100 to 600
23,O[C@@H]([C@H](O)[C@H](O)CBr)[C@H](O)CBr [Mitobronitol],100 to 600
24,OC1(c2ccc(Cl)c(C(F)(F)F)c2)CCN(CCCC(c2ccc(F)cc2)c2ccc(F)cc2)CC1 [Penfluridol],600 to 1200
25,CO[C@@H]1[C@@H](O[C@@H]2O[C@H](C)[C@@H](O[C@H]3C[C@@](C)(O)[C@@H](OC(=O)CC(C)C)[C@H](C)O3)[C@H](N(C)C)[C@H]2O)[C@@H](CC=O)C[C@@H](C)[C@@H](O)/C=C/C=C/C[C@@H](C)OC(=O)C[C@H]1OC(C)=O [Josamycin],0.1 to 10
26,"O=C(CCBr)N1CCN(C(=O)CCBr)CC1 [Pipobroman, N,N-Bis(3-bromopropionyl)piperazine]",1200 to 10000
27,CCCc1nn(C)c2c(=O)[nH]c(-c3cc(S(=O)(=O)N4CCN(C)CC4)ccc3OCC)nc12 [Sildenafil Citrate],1200 to 10000
28,O=C(O)C[C@H](O)C[C@H](O)/C=C/c1c(C2CC2)nc2ccccc2c1-c1ccc(F)cc1 [Pitavastatin],100 to 600
29,Cc1ccc2nc(NCCN)c3ncc(C)n3c2c1 [BMS-345541],1200 to 10000
30,O=C1NC(=O)c2cc(Nc3ccc(F)cc3)c(Nc3ccc(F)cc3)cc21 [CGP53353],1200 to 10000
